# How the values were obtained:
# total RNA from PBMCs = test: RNA-seq gene expression before and after 4 weeks of amisulpride treatment; type: in vivo, human
# Excerpt: (§1) The cohort analysed in this study was obtained from the OPTiMiSE clinical trial (http://www.optimisetrial.eu) (29). After providing written informed consent, 491 patients with a first episode psychosis were included and 453 started medication. All patients were diagnosed with schizophrenia, schizophreniform disorder or schizoaffective disorder according to the Diagnostic and Statistical Manual of Mental Disorders, Fourth Edition (DSM-IV) and confirmed on the basis of the Mini International Neuropsychiatric Interview Plus (M.I.N.I. Plus) (30) (table 4). At baseline, patients were medication-naïve or minimally-treated (any antipsychotic medication used for […] 2 weeks in the previous year or for a total of 6 weeks in their lifetime) and were ill for no longer than 2 years. Only subjects involved in the single-treatment arm (phase 1) of the trial were considered for this study (29). All patients were treated for 4 weeks with amisulpride (200-800 mg/day orally). At the end of the 4-week treatment, the blood concentration of antipsychotic used has been determined. This measurement provided a reliable indication of the treatment compliance of individual patients.
# A DNase digestion procedure was added after extraction. Total RNA was purified using the RNA Clean & Concentrator™-5 kit following the manufacturer's instructions (Zymo Research Corp., Irvine, USA). RNA quantification was performed on a NanoDrop™ 8000 spectrophotometer, in duplicate. The quality and integrity of the RNA samples were assessed using an Agilent Bioanalyzer 2100 and the RNA6000 Nano Labchip kit (Agilent Technologies). Only samples with an RNA integrity number (RIN) higher than 7 were selected. Three hundred and seventy-six RNA samples fulfilled quality control criteria for RNA-seq analyses, corresponding to two RNA samples (one at inclusion and one after 4 weeks of treatment) for 188 subjects. Forty-eight additional RNAs were available for replication studies, in 24 independent subjects.
# All libraries were prepared using the Illumina TruSeq Stranded Total RNA with Ribo-Zero Globin kit (Illumina Inc., San Diego, Calif., U.S.A.), which removes ribosomal RNA and globin mRNA. Libraries were prepared using one microgram of total RNA as initial input and following the standard protocols. After library quality control, 2×100 bp paired-end (PE) sequencing was performed on a HiSeq4000 system (Illumina), pooling a maximum of 6 samples on each lane, in order to reach 40 to 50 million of PE-reads for each sample. The Illumina pipeline was used to generate raw RNA sequencing data (fastq files) for each sample. Sequence quality controls were performed, using FastQC and in-house bioinformatics pipelines, from a sampling of 2×10 million reads in order to assess the levels of read duplicates, adapters, remaining rRNA and the GC content. Reads were trimmed for adapters and low-quality bases (Phred quality score <30) using Trimmomatic software (v.0.32). Reads were then mapped to the Genome Reference Consortium human genome assembly 37 (GRCh37) reference genome (hg19) using Tophat software (v.2.0.13). Read mapping quality was assessed using RNA-SeQC software. Then, gene-level quantification in read counts was performed by HTSeq software (v.0.6.1), using gene annotation from Ensembl v.86. All downstream analyses were conducted using the statistical software R (v.3.2.4) and Bioconductor R packages. Genes with counts-per million (cpm) below 1 in more than two third of the samples were considered unexpressed and removed from the analysis using edgeR package (v.3.12.1). Raw gene counts matrix has been normalized to account for differences in sequencing depth and RNA composition using the “median ratio” method implemented in the DESeq2 package (v.1.16.1). To avoid batch effects as confounding factors, all subjects had their 2 time-points in a same batch. […]
# [1] = Clinical response (total PANSS score change) over 4 weeks of amisulpride, OPTiMiSE first episode psychosis; type: in vivo, human
# Excerpt: as §1
# A clinical response to treatment can be defined according to many criteria. […] Note that good responders were slightly older than poor responders with a lower duration of untreated psychosis and more positive symptoms (data not shown).
# [2] = good responders (n = 113), 4 weeks amisulpride
# [3] = poor responders (n = 75), 4 weeks amisulpride
# [4] = admixture model of total PANSS score change over 4 weeks of treatment, 200-800 mg/day orally
# [5] = of 188 subjects, 4 weeks of treatment
structure (smiles),measurement,setting,value
"CCN1CCCC1CNC(=O)c1cc(S(=O)(=O)CC)c(N)cc1OC (stereo not drawn) [amisulpride, 4-amino-N-((1-ethyl-2-pyrrolidinyl)methyl)-5-(etgylsulfonyl)-2-methoxybenzamide]","FC, fold-change at week 4 relative to the expression level at inclusion: GALNT14","total RNA from PBMCs; GALNT14, poor responders (n = 75), 4 weeks amisulpride",1.04
same,"FC, fold-change at week 4 relative to the expression level at inclusion: GUCY1B3",total RNA from PBMCs; [2],1.14
same,"FC, fold-change at week 4 relative to the expression level at inclusion: GUCY1B3",total RNA from PBMCs; [3],1.05
same,"FC, fold-change at week 4 relative to the expression level at inclusion: HOMER3",total RNA from PBMCs; [2],0.84
same,"FC, fold-change at week 4 relative to the expression level at inclusion: HOMER3",total RNA from PBMCs; [3],1.09
same,"FC, fold-change at week 4 relative to the expression level at inclusion: KAZN",total RNA from PBMCs; [2],0.83
same,"FC, fold-change at week 4 relative to the expression level at inclusion: KAZN",total RNA from PBMCs; [3],0.94
same,"FC, fold-change at week 4 relative to the expression level at inclusion: KIAA0319",total RNA from PBMCs; [2],0.83
same,"FC, fold-change at week 4 relative to the expression level at inclusion: KIAA0319",total RNA from PBMCs; [3],0.94
same,"FC, fold-change at week 4 relative to the expression level at inclusion: LINC00963",total RNA from PBMCs; [2],0.91
same,"FC, fold-change at week 4 relative to the expression level at inclusion: LINC00963",total RNA from PBMCs; [3],1.08
same,"FC, fold-change at week 4 relative to the expression level at inclusion: NFE4",total RNA from PBMCs; [2],0.83
same,"FC, fold-change at week 4 relative to the expression level at inclusion: NFE4",total RNA from PBMCs; [3],0.95
same,"FC, fold-change at week 4 relative to the expression level at inclusion: NLRP6",total RNA from PBMCs; [2],0.81
same,"FC, fold-change at week 4 relative to the expression level at inclusion: NLRP6",total RNA from PBMCs; [3],1.09
same,"FC, fold-change at week 4 relative to the expression level at inclusion: NLRP12",total RNA from PBMCs; [2],0.87
same,"FC, fold-change at week 4 relative to the expression level at inclusion: NLRP12",total RNA from PBMCs; [3],1.08
same,"FC, fold-change at week 4 relative to the expression level at inclusion: P2RY12",total RNA from PBMCs; [2],1.14
same,"FC, fold-change at week 4 relative to the expression level at inclusion: P2RY12",total RNA from PBMCs; [3],1.10
same,"FC, fold-change at week 4 relative to the expression level at inclusion: P4HA2",total RNA from PBMCs; [2],0.89
same,"FC, fold-change at week 4 relative to the expression level at inclusion: P4HA2",total RNA from PBMCs; [3],1.04
same,"FC, fold-change at week 4 relative to the expression level at inclusion: PLB1",total RNA from PBMCs; [2],0.85
same,"FC, fold-change at week 4 relative to the expression level at inclusion: PLB1",total RNA from PBMCs; [3],0.99
same,"FC, fold-change at week 4 relative to the expression level at inclusion: SLC4A4",total RNA from PBMCs; [2],1.15
same,"FC, fold-change at week 4 relative to the expression level at inclusion: SLC4A4",total RNA from PBMCs; [3],0.93
same,"FC, fold-change at week 4 relative to the expression level at inclusion: TRPC6",total RNA from PBMCs; [2],1.26
same,"FC, fold-change at week 4 relative to the expression level at inclusion: TRPC6",total RNA from PBMCs; [3],0.97
same,"FC, fold-change at week 4 relative to the expression level at inclusion: WLS",total RNA from PBMCs; [2],0.87
same,"FC, fold-change at week 4 relative to the expression level at inclusion: WLS",total RNA from PBMCs; [3],0.98
same,DEGs before vs after treatment that survived BH-correction,"total RNA from PBMCs; good responders only, FDR threshold of 0.1, 16,204 genes expressed in PBMCs",32 genes
same,proportion of good responders,[1]; [4],56%
same,proportion of poor responders,[1]; [4],44%
same,mean reduction of total PANSS score,"[1]; good responders subpopulation of the admixture model, 4 weeks of treatment",36.3%
same,patients with a less than 20% reduction in total PANSS score,[1]; [5],75 patients
same,patients with a more than 20% reduction in total PANSS score,[1]; [5],113 patients
same,mean PANSS total reduction,"[1]; poor responders subpopulation of the admixture model, 4 weeks of treatment",13.0%

# Reference: patent US20220290237A1, “METHOD FOR PREDICTING THE RESPONSE OF ANTIPSYCHOTIC DRUGS” (INSERM (INSTITUT NATIONAL DE LA SANTÉ ET DE LA RECHERCHE …, priority 2019, published 2022)
